Assay results taken from PMC10547238, “Discovery of Potent Tetrazole Free Fatty Acid Receptor 2 Antagonists” (Journal of Medicinal Chemistry, 2023).
In brackets after ≈: the same amount, converted by molar mass.

Tests used:
[1] = Kinetic aqueous solubility; assay type: physicochemical; conditions: phosphate buffer; kinetic solubility in PBS at pH 7.4 and 25 °C
Description: Twenty microliters of a 10 mM compound stock solution in DMSO was added to an Eppendorf tube containing 980 μL of phosphate buffer (10 mM, pH = 7.4). The samples were incubated in an Eppendorf Thermomixer (25 °C, 800 rpm) for 24 h. Afterward, the samples were centrifuged for 5 min at 11,000 rpm and the supernatant was filtered (0.2 μm PTFE membrane) before analysis by HPLC. Each compound was analyzed in duplicate. The solubility was calculated from the peak area relative to the reference samples (200 μM in MeOH/MilliQ H2O, 60/40, v/v).

hFFA2 = biological target: T1, hFFA2 (Homo sapiens, UniProt O15552); test: cAMP assay, antagonist mode, Flp-In T-Rex 293 cells expressing hFFA2-eYFP; assay type: cell-based; conditions: for cAMP pIC50: hFFA2, antagonist mode, propionate at EC80, mean ± SEM, three or more experiments; for LLEcAMP: pIC50, cAMP – ClogP; for LLEcAMP-logD: pIC50, cAMP – logD7.4; for IC50: read-out: hFFA2 cAMP (pIC50) (converted)
T1 construct: expressed in transfected cells; host or cells: Flp-In T-Rex 293 cells, doxycycline-induced
T1 sequence (O15552 1-330): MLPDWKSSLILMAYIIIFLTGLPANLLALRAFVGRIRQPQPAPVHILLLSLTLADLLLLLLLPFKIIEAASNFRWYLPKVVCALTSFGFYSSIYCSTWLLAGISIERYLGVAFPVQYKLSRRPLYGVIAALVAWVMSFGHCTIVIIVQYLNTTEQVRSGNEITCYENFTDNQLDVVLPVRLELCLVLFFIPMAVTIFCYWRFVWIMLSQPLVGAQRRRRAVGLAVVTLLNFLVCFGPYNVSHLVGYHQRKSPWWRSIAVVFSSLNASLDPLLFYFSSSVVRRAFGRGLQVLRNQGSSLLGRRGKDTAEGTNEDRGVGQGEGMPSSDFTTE
Description: (§1) The activity of the compounds on FFA2 was evaluated in two different functional antagonist assays, both using propionate at EC80 as the agonist. The GTPγS assay reflects receptor activation by directly assessing G protein recruitment, whereas the cAMP assay, performed in whole cells, reflects a physiologically relevant downstream second messenger.
The hFFA2-eYFP and hFFA3-eYFP Flp-In T-Rex 293 cell lines were maintained in Dulbecco’s modified Eagle mMedium (DMEM, ThermoFisher #11965092) supplemented with 10% (v/v) fetal bovine serum, 100 U/mL penicillin, 100 μg/mL streptomycin, 5 μg/mL blasticidin S, and 200 μg/mL hygromycin B and incubated at 37 °C and 5% CO2 in a humidified incubator. Cells were passaged at 70–80% confluency.
To determine the compound’s ability to activate or inhibit the Gi-coupled FFA2 or FFA3, intracellular cAMP concentrations were determined using Flp-In T-Rex293 cells induced to express hFFA2-eYFP or hFFA3-eYFP. Experiments were carried out using a homogeneous time-resolved FRET-based detection kit (CisBio, PerkinElmer #62AM9PEC) according to the manufacturer’s protocol. The day before the assay, 10,000 cells/well were plated in DMEM supplemented with penicillin/streptomycin (100 units/mL and […], respectively), 5 μg/mL blasticidin S, and 200 μg/mL hygromycin B in 96-well cell culture microplates (Greiner Bio-One) and induced to express hFFA2-eYFP or hFFA3-YFP with 100 ng/mL doxycycline.
In antagonist mode, the cells were pre-incubated for 20 min with antagonist test compounds in HBSS together with 50 μM IBMX at rt. Then, the cells were further incubated for 25 min at rt in HBSS with the agonist compound, sodium propionate at EC80 (51.4 μM for FFA2, 13.2 μM for FFA3), and 3 μM forskolin. Reactions were stopped, and the output was measured with an Envision plate reader using a time-resolved fluorescence protocol, measuring the light emission at 620 and 665 nm. All analyses were performed in triplicate and analyzed using GraphPad Prism (version 9).

human FFA2-eYFP = biological target: T2, human FFA2-eYFP (Homo sapiens, UniProt O15552); test: [35S]GTPγS incorporation assay, membranes of Flp-In T-Rex 293 cells; assay type: biochemical; conditions: for GTPγS pIC50: hFFA2, propionate at EC80, mean ± SEM, three or more experiments; for LLEGTPγS: pIC50, GTPγS – ClogP
T2 construct: expressed in transfected cells; host or cells: membranes of Flp-In T-Rex 293 cells induced to express the construct
T2 sequence (O15552 1-330): T1 sequence (O15552 1-330)
Description: as §1
Functional activity of the compounds were tested in a [^35S]GTPγS incorporation assay using membranes of Flp-In T-Rex 293 cells induced to express human FFA2-eYFP. […] The reaction was initiated by addition of [^35S]GTPγS (100 nCi per reaction) containing 1 μM GDP and incubated at 30 °C for 60 min. The reaction was terminated by rapid vacuum filtration through GF/C glass fiber filter-bottom 96-well microplates (PerkinElmer Life Sciences, Beaconsfield, UK) using a UniFilter FilterMate Harvester (PerkinElmer). Unbound radioligands were removed from filters by three washes with ice-cold PBS. MicroScint-20 (PerkinElmer) was added to dried filters, and [^35S]GTPγS binding was quantified by liquid scintillation spectroscopy.

Microsomal stability = assay type: in vitro ADME, mouse
Description: The assay was performed in duplicates essentially as described previously,[58] using male CD1 mouse liver microsomes (Thermo Fischer Scientific, 20 mg/mL), NADPH-regenerating agent Solution A and Solution B (Promega), potassium phosphate buffer (100 mM, pH 7.4), and test compounds (1 mM, diluted from 10 mM DMSO stock in the buffer). The samples were analyzed in an Agilent 6130 Mass Spectrometer instrument using electron spray ionization (ESI) coupled to an Agilent 1200 HPLC system (ESI-LCMS) with a C18 reverse phase column (Zorbax Eclipse XBD-C18, 4.6 mm × 50 mm) using a linear gradient of the binary solvent system of 100% mobile phase A (water:MeCN:formic acid, 95:5:0.1 v/v%) to 100% mobile phase B (MeCN:formic acid, 100:0.1 v/v %) in 6 min, with a flow rate of 1 mL/min.
To a pre-warmed solution of potassium phosphate buffer (135.6 μL) in an Eppendorf tube at 37 °C were added Solution A (7.5 μL), Solution B (1.5 μL), microsomes (3.9 μL), and the test compound (1 mM, 1.5 μL, final concentration = 10 μM). The tube was briefly vortexed and incubated at 37 °C in a thermomixer. At 0, 15, 30, 45, and 60 min, 25 μL of each sample was transferred to an ice-cold solution containing an internal standard (5 μM in MeCN, 12.5 μL). The sample was briefly vortexed and centrifuged for 5 min at 10.000g. The supernatant (25 μL) was transferred to HPLC vial and analyzed by ESI-LCMS in single ion mode. The data was analyzed using GraphPad Prism (version 9).

[2] = Lipophilicity (logD7.4), octanol/PBS7.4 shake flask; assay type: physicochemical; conditions: 1-octanol/PBS7.4, pH 7.4; mean of two independent experiments
Description: The assay was performed in duplicates essentially as previously described.[58] A glass vial with a screw cap (8 mL) was charged with the test compound (40 μL, 10 mM in DMSO), PBS7.4 (0.01 M, 1980 μL), and 1-octanol (1980 μL). The vial was capped and sealed with a Parafilm and shaken at 700 rpm using an IKA KS 125 basic shaker for 24 h at 25 °C. The Parafilm was removed, and the sample was allowed to equilibrate for 1 h before analysis. One hundred microliters of the octanol phase was withdrawn and diluted 1:10 with MeOH (+0.1% TFA)/MilliQ water (4:1, v/v) and analyzed by HPLC. The interface was removed, and the PBS7.4 phase analyzed directly by HPLC. All analysis was performed in duplicates, and log D7.4 values were calculated from the peak areas (mAU·min) and adjusted for difference in injection volume and concentration-absorption effects from the solvents, using two calibration points per compound per solvent, and dilution of the octanol phase.

[3] = % recovered after 60 min, mouse liver microsomes

Compound	solubility at 24 h [1] [µM]	cAMP pIC50 (hFFA2)	LLEcAMP (hFFA2)	LLEcAMP-logD (hFFA2)	IC50 (hFFA2; supplementary CSV) [nM]	GTPγS pIC50 (human FFA2-eYFP)	LLEGTPγS (human FFA2-eYFP)	increased potency over CATPB (3) (human FFA2-eYFP; vs 3)	increase in potency over TUG-1958 (4) (human FFA2-eYFP; vs 4) [fold]	microsomal stability (Microsomal stability; [3]) [%]	microsomal stability (Microsomal stability; supplementary CSV) [%]	logD at 25 h [2]	hFFA2 cAMP (pIC50) (hFFA2; supplementary CSV)
Cc1cccc(CC(=O)N[C@@H](Cc2ccc(C(F)(F)F)cc2)Cc2nnn[nH]2)c1 [Compound 8, (S)-N-(1-(1H-Tetrazol-5-yl)-3-(4-(trifluoromethyl)phenyl)propan-2-yl)-2-(m-tolyl)acetamide]	163 (≈ 65.8 µg/mL)	8.30 ± 0.12	5.24	7.04	5.62	8.07 ± 0.08	5.01	more than 10 fold	4	89	89	1.26 ± 0.07	–
O=C(Cc1cccc(Cl)c1)N[C@@H](Cc1ccc(C(F)(F)F)cc1)Cc1nnn[nH]1 [Compound 16e, (S)-N-(1-(1H-Tetrazol-5-yl)-3-(4-(trifluoromethyl)phenyl)propan-2-yl)-2-(3-chlorophenyl)acetamide]	138 (≈ 58.5 µg/mL)	8.15 ± 0.05	4.87	6.35	6.61	8.53 ± 0.19	5.25	–	–	92	92	1.8 ± 0.09	–
O=C(Cc1cccc(Br)c1)N[C@@H](Cc1ccc(C(F)(F)F)cc1)Cc1nnn[nH]1 [Compound 16g, (S)-N-(1-(1H-Tetrazol-5-yl)-3-(4-(trifluoromethyl)phenyl)propan-2-yl)-2-(3-bromophenyl)acetamide]	121 (≈ 56.7 µg/mL)	8.21 ± 0.09	4.78	–	–	8.30 ± 0.21	4.87	–	–	–	–	–	8.19 ± 0.19
O=C(Cc1cccc(I)c1)N[C@@H](Cc1ccc(C(F)(F)F)cc1)Cc1nnn[nH]1 [Compound 16h, (S)-N-(1-(1H-Tetrazol-5-yl)-3-(4-(trifluoromethyl)phenyl)propan-2-yl)-2-(3-iodophenyl)acetamide]	81 (≈ 41.7 µg/mL)	8.26 ± 0.08	4.57	–	6.03	8.38 ± 0.05	4.69	–	–	–	–	–	–
